The source of these data is US20060281711A1, “IL-12 modulatory compounds” (Synta Pharmaceuticals Corp., priority 2005, published 2006).

In one test the test system is IL-12. Nature of the test: Human in vitro assay: inhibition of IL-12 production in stimulated human PBMC or THP-1 cells (ELISA). The class given is cell-based. To be noted: read-out: IC50 Range (in vitro IC50 for IL-12). From the text:
The biological activities of a compound of the invention can be evaluated by a number of cell-based assays. One of such assays can be conducted using cells from human peripheral blood mononuclear cells (PBMC) or human monocytic cell line (THP-1). The cells are stimulated with a combination of human interferon-γ (IFNγ) and lipopolysaccharide or a combination of IFNγ and Staphylococcus aureus Cowan I in the presence of a test compound. The level of inhibition of IL-12 production can be measured by determining the amount of p70 by using a sandwich ELISA assay with anti-human IL-12 antibodies. IC50 of the test compound can then be determined. Specifically, PBMC or THP-1 cells are incubated with the test compound. Cell viability was assessed using the bioreduction of MTS [3-(4,5-dimethylthiazol-2-yl)-5-(3-carboxymethoxyphenyl)-2-(4-sulfophenyl)-2H-tetrazolium] (Promega, Madison, Wis.).
8. Reagents. Staphylococcus aureus Cowan I (SAC) was obtained from Calbiochem (La Jolla, Calif.), and lipopolysaccharide (LPS, Serratia marscencens) was obtained from Sigma (St. Louis, Mo.). Human and mouse recombinant IFNγ were purchased from Boehringer Mannheim (Mannheim, Germany) and Pharmingen (San Diego, Calif.), respectively.
9. Human In Vitro Assay. Human PBMC were isolated by centrifugation using Ficoll-Paque (Pharmacia Biotech, Uppsala, Sweden) and prepared in RPMI medium supplemented with 10% fetal calf serum (FCS), 100 U/mL penicillin, and 100 μg/mL streptomycin. PBMC were plated in wells of a 96-well plate at a concentration of 5×10^5 cells/well, and primed by adding IFNγ (30 U/mL) for 22 h and stimulated by adding LPS (1 μg/mL), or by adding IFNγ (100 U/mL) and then stimulated by adding SAC (0.01%). A test pyrimidine compound was dissolved in DMSO, and added to wells of the 96-well plate. The final DMSO concentration was adjusted to 0.25% in all cultures, including the compound-free control. Human THP-1 cells were plated in wells, primed by adding IFNγ (100 U/mL) for 22 h and stimulated by adding SAC (0.025%) in the presence of different concentrations of the pyrimidine compound. Cell-free supernatants were taken 18 h later for measurement of cytokines. Cell viability was assessed using the bioreduction of MTS. Cell survival was estimated by determining the ratio of the absorbance in compound-treated groups versus compound-free control.
10. The supernatant was assayed for the amount of […], IL-12p70, or IL-10 by using a sandwich ELISA with anti-human antibodies, i.e., a Human IL-12 p40 ELISA kit from R&D Systems (Berkeley, Calif.), and a Human IL-12 p70 or IL-10 ELISA kit from Endogen (Cambridge, Mass.). Assays were based on the manufacturer's instructions.
The biological activities of compounds of the invention were tested on human PBMC or THP-1 cells.
For orientation: An ELISA detects its analyte on a solid surface through an enzyme-linked reagent.

The test system of test [1] is Adjuvant arthritis (AA) in female Lewis rats. The test can be described thus: Treatment of adjuvant arthritis in rats. It counts as in vivo, rat. To be noted: orally once a day for 7 days (day 7-14). On the procedure:
Adjuvant arthritis (AA) was induced in female Lewis rats by the intracutaneous injection (base of the tail) of 0.1 mL of a 10 mg/mL bacterial suspension made from ground, heat-killed Mycobacterium tuberculosis H37Ra suspended in incomplete Freund's adjuvant. Rats were given a test compound orally once a day for 7 days (day 7-14), starting day 7 after mycobacterium induction. The development of polyarthritis was monitored daily by macroscopic inspection and assignment of an arthritis index to each animal, during the critical period (days 10 to 25 post-immunization).
The intensity of polyarthritis was scored according to the following scheme: (a) Grade each paw from 0 to 3 based on erythema, swelling, and deformity of the joints: 0 for no erythema or swelling; 0.5 if swelling is detectable in at least one joint; 1 for mild swelling and erythema; 2 for swelling and erythema of both tarsus and carpus; and 3 for ankylosis and bony deformity. Maximum score for all 4 paws is thus 12. (b) Grade for other parts of the body: for each ear, 0.5 for redness and another 0.5 if knots are present; 1 for connective tissue swelling (saddle nose); and 1 for the presence of knots or kinks in the tail. The highest possible arthritic index is 16.
Experiments with the AA model were repeated four times. […] The arthritis score used in this model is a reflection of the inflammatory state of the structures monitored and the results therefore show the ability of the test compound to provide relief for this aspect of the pathology.

As for `COc1ccc2c(c1)/C(=N/Nc1cc(N3CCOCC3)nc(OCCN3CCOCC3)n1)CC2` [Compound 9, N-(6-Methoxy-indan-1-ylidene)-N′-[6-morpholin-4-yl-2-(2-morpholin-4-yl-ethoxy)-pyrimidin-4-yl]-hydrazine], the IC50 with IL-12 is < 1 µM. Moreover, the “percent reduction in arthritic score” value in test [1] (20 mg/kg dose) was 24%.
Take `Cc1ccc2c(c1)/C(=N/Nc1cc(N3CCOCC3)nc(OCCN3CCOCC3)n1)CCO2` [Compound 2, N-(6-Methyl-chroman-4-ylidene)-N′-[6-morpholin-4-yl-2-(2-morpholin-4-yl-ethoxy)-pyrimidin-4-yl]-hydrazine]: in the test on IL-12, the IC50 was < 1 µM. In addition, the “percent reduction in arthritic score” value in test [1] (20 mg/kg dose) is given as 21% reduction; in test [1] (50 mg/kg dose), 32% reduction.

What is called IC50 is the concentration needed to halve the response being measured.
